Results published in patent publication US20200085831A1, “NASAL COMPOSITIONS STIMULATING CILIARY ACTIVITY” (Innotesto BVBA, priority 2013, published 2020).

How the values were obtained:
[1] = adult population, Nawrot et al. 2003, cited from earlier work
[2] = system: ciliated cells; experiment: In vitro experiments with ciliated cells (ascorbic acid); type: cell-based; conditions: several in vitro experiments
Experimental: When ascorbic acid is added to the present disclosure composition, the pH of the final composition should be adapted to values between about 6-8 and preferably between about pH 7-7.5 by adding a small amount of sodium bicarbonate or other pH regulating agents.

| Compound | daily intake not associated with adverse effects [1] [mg per day] | daily intake not associated with adverse effects, per bodyweight ([1]; equivalent of the mg per day level) | effect on the ciliary beat frequency [2] |
| --- | --- | --- | --- |
| Cn1c(=O)c2c(ncn2C)n(C)c1=O [Caffeine, 1,3,7-trimethylxanthine] | < 400 | about 6 mg/kg bodyweight |  |
| O=C1O[C@H]([C@@H](O)CO)C(O)=C1O [ascorbic acid] |  |  | increases the ciliary beat frequency |
